Series [1] can be described thus: Cell viability with increasing IC261, normal c-MYC expressing cells. Type of series: cell-based. Particulars: human; IC261 at 0.5 log μM and above. The procedure: (§1) The effect of CSNK1ε on the cell viability of ovarian cancer lines was investigated in vitro. First, HFF (non-cancer primary cells) with control vector, RMG-1 (normal c-MYC expressing), CaOV3 (normal c-MYC expressing), HFF with cMYC induced (amplified c-MYC expressing), TOV112D (amplified c-MYC expressing), and COLO720E (amplified c-MYC expressing) were exposed to increasing concentrations of IC261. Cell viability was assessed as described above.

For series [2], the system named is A2780 ovarian cancer cells. Nature of the series: Cell viability with cisplatin in presence or absence of IC261. Format: cell-based. Particulars: 1 μM IC-261 with increasing doses of cisplatin. The text has this: (§2) Cisplatin, or cis-diamminedichloroplatinum(II) (CDDP), is a chemotherapy drug commonly used to treat numerous types of cancers including ovarian cancer. Cisplatin contains platinum complexes that crosslink DNA, ultimately triggering apoptosis of the cell. However, many treated cancer relapse and display a resistance to cisplatin. Considering the ability of CSNK1ε inhibitors to reduce viability of cells with amplified c-MYC expression, a similar role of CSNK1ε inhibitors on cisplatin resistant cancer cells was investigated. A2780 and A2780-CP70 (resistant derivative), PEO1 and PEO4 (resistant derivative of PE01) ovarian cancer cell lines were cultured in the presence of increasing doses of cisplatin and the presence or absence of IC261. Cell viability was monitored as described above. […] It is noted that the c-MYC expression level in A2780 cells is yet undetermined.

The test system of series [3] is PEO1 ovarian cancer cells. Described as above. Format: cell-based. Particulars: 1 μM IC-261 with low doses of cisplatin.
Text: as §2

Series [4] deals with A2780-CP70 (cisplatin-resistant) ovarian cancer cells. The description is as above. Particulars: 1 μM IC-261 with increasing doses of cisplatin. Format: cell-based.
Text: as §2

Series [5] concerns IMR-32 (amplified MYCN expression) xenograft blastoma tumors. As to the kind of experiment: IMR-32 neuroblastoma xenograft in NOD/SCID mice. Type of series: in vivo. The procedure: To evaluate the therapeutic potential of CSNK1ε kinase inhibitors, IC261, a small molecule inhibitor of CSNK1ε and d kinase activity (Mashhoon, N., et al., “Crystal Structure of a Conformation-Selective Casein Kinase-1 Inhibitor,” J Biol Chem 275:20052-20060, 2000) was administered to mice with established IMR-32 (amplified MYCN expression) xenograft blastoma tumors. Specifically, 10 NOD/SCID mice were injected with 1×10^7 IMR-32 blastoma cells. The tumors were allowed to establish for 6 weeks. The mice were randomized into control and IC261 treatment groups. At the start of treatment, the average tumor size for the control mice was 98.8±42.5 mm^3, whereas the average tumor size for the IC261 treatment group was 121.9±46.9 mm^3. The groups were subcutaneously injected once daily for seven days with 20.5 mg/kg of IC261 or DMSO in 200 μl. During treatment, the tumor size was monitored. […] However, at day three the average tumor volume of the IC261-treated mice was reduced, a trend that continued throughout the remaining treatment schedule, ultimately to a volume of about 100 mm^3. In contrast, the tumor volume of the DMSO-treated mice continued to increase to a volume of about 350 mm^3. Histological sections of tumors from each group were prepared after the 8th day of IC261 treatment. The tumor sections were subjected to hematoxylin and eosin (H-E) stain, TUNEL stain, and BrdU staining to ascertain the cell structure, and frequencies of cell apoptosis, and cell proliferation within the tumors. […] The images shown in FIG. 7D are representative of at least 10 fields viewed over two stained sections per animal.

The subject of series [6] is HFF with cMYC induced, TOV112D, COLO720E (amplified c-MYC expressing). Nature of the series: Cell viability with increasing IC261, cells with amplified c-MYC. Particulars: IC261 at 0.5 log μM and above. Type of series: cell-based, human. The procedure:
as §1

Series [7] relates to WNT signaling (β-catenin activity) in COLO720E ovarian cells. Nature of the series: Relative β-catenin activity (WNT signaling) in COLO720E ovarian cells. Format: cell-based, human. Particulars: higher doses of IC261 (0, 0.67, 3.3, 6.67 μM tested). The procedure:
CSNK1ε has been implicated as a positive regulator of WNT signaling (Sakanaka, C., “Phosphorylation and Regulation of Beta-Catenin by Casein Kinase I Epsilon,” J Biochem 132:697-703, 2002). To determine the functional status of WNT activity in neuroblastoma cells with or without amplified MYCN expression, a WNT dual reporter system, employing both consensus (TOP) and mutant (FOP) TCF binding sites was assayed in neuroblastoma cell lines SK-N-AS (MYCN not amplified), SH-Sy5Y (MYCN not amplified), IMR-32 (MYCN amplified and overexpressed), and SK-N-BE2 (MYCN amplified and overexpressed), as described in (Biechele, T. L., et al., “Transcription-Based Reporters of Wnt/beta-Catenin Signaling,” Cold Spring Harb Protoc 2009, pdb prot5223).
The impact of stable knock-down of CSNK1ε was assessed for the expression for WNT signal function. To confirm the efficacy of the stable knockdown technique in ovarian cells, Dox-inducible lentivirus constructs encoding shRNAs targeting CSNK1ε were transduced into COLO720E ovarian cells. […] Next, to assess the WNT signaling activity, relative β-catenin activity was assayed as described, supra, for COLO720E ovarian cells transduced with the shRNA encoding lentivirus targeting CSNK1ε. […] A similar effect on relative β-catenin activity was observed upon administration of IC261, the inhibitor of CSNK1ε. […]

Series [8] has as its system IMR-32 cells (amplified MYCN expression). Nature of the series: Microscopic analysis of neuroblastoma cells after IC261. Format: cell-based. Particulars: 48 hours; 0.1 μM or 1.0 μM IC261. The procedure: (§3) Microscopic analysis of the SN-N-AS (normal MYCN expression) and IMR-32 (amplified MYCN expression) neuroblastoma cell lines, further supporting the differential effect of the CSNK1ε inhibitor, IC261, on the health and proliferation of neuroblastoma cells overexpressing MYCN. Referring to FIG. 5, top line, micrographs are provided illustrating SK-N-AS (normal MYCN expression) cells in culture before and 48 hours after culture with DMSO, 0.33 μM, or 3.3 μM IC261. Referring to FIG. 5, bottom line, micrographs are provided illustrating IMR-32 cells (amplified MYCN expression) in culture before and 48 hours after culture with DMSO, 0.1 μM, or 1.0 μM IC261.

The subject of series [9] is SK-N-AS (normal MYCN expression) cells. The description is as above. Type of series: cell-based. Particulars: 48 hours; 0.33 μM or 3.3 μM IC261. The procedure: as §3

Regarding `COc1cc(OC)c(/C=C2/C(=O)Nc3ccccc32)c(OC)c1` [IC261], the viability in series [1] was ≥ 75%. In addition, the “response to cisplatin (cell viability)” value in series [2] and in series [4] was “greatly sensitized” in each case. In series [3], the “cell viability with low doses of cisplatin” value is “large reduction in cell viability”. In addition, in [5] (20.5 mg/kg subcutaneously once daily for seven days), the “average tumor volume at end of treatment schedule” value is “about 100 mm^3”. In addition, in [5] (after the 8th day of IC261 treatment), the “cell proliferation in tumor sections (BrdU stain) vs DMSO control” value is reported as “drastically reduced indications of cell proliferation”. Moreover, in series [5] (day three of treatment, 20.5 mg/kg s.c. daily), the average tumor volume entry is on record as “reduced”. The “tumor volume vs DMSO-treated mice” value in [5] (first two days of treatment, 20.5 mg/kg s.c. daily) is “no significant difference”. Further, the relative viability in [6] is on record as ≤ 25%. Also, the “relative β-catenin activity” value in series [7] is on record as “reduced by more than two thirds”. Also, the “cell appearance in micrographs” value is “detached from the plate surface and balled up” in series [8]; “maintained healthy spreading and attachment” in series [9].

As usually defined, the viability is a read-out of living cells in per cent, often relative to untreated cells. Read a high viability as better survival.

(Values after patent publication US10188630B2, “Methods for identifying and using inhibitors of casein kinase 1 epsilon isoform for inhibiting the growth and/or proliferation of MYC-driven tumor cells” (Fred Hutchinson Cancer Research Center, priority 2010, dated 2019).)
